Laboratory results reported in the NIST ThermoML archive (doi:10.1021/acs.jced.8b00487).
Several values for one entry are separate records, joined by “and”; a condition that tells them apart may be missing. Equal entries are not always repeated. ± gives the expanded uncertainty stated by the source.

What was measured:
[1] = xn = mol fraction of the nth substance listed; settings: 298.15 K, 101 kPa, Liquid, Vibrating tube method
[2] = 298.15 K; 101.33 kPa; Liquid; Vibrating tube method

For `CCCCC(CC)COP(=O)([O-])OCC(CC)CCCC.CCCCC(CC)COP(=O)([O-])OCC(CC)CCCC.CCCCC(CC)COP(=O)([O-])OCC(CC)CCCC.[Sm+3]` (stereo unspecified) [samarium(III) bis(2-ethylhexyl) phosphate] + CCCCC(CC)COP(=O)(O)OCC(CC)CCCC, the mass density ([1]; x1 = 0.00583) was 974 ± 2 kg/m3, the mass density ([1]; x1 = 0.01288) was 976.9 ± 2 kg/m3 and the mass density ([1]; x1 = 0.01616) was 978.9 ± 2 kg/m3. It also gave a mass density ([1]; x1 = 0.02646) of 983.1 ± 2 kg/m3, a mass density ([1]; x1 = 0.03185) of 986.2 ± 2 kg/m3 and a mass density ([1]; x1 = 0.03372) of 986.4 ± 2 kg/m3. The mass density ([1]; x1 = 0.05017) was 993.9 ± 2 kg/m3, the mass density ([1]; x1 = 0.05958) was 997.2 ± 2 kg/m3 and the mass density ([1]; x1 = 0.06022) was 998.2 ± 2 kg/m3. For the same molecule, the mass density ([1]; x1 = 0.07053) was 1001.8 ± 2 kg/m3.

Molecule `Cc1ccccc1C` [1,2-dimethylbenzene] has a mass density [2] of 875.6 ± 0.5 kg/m3.

In the case of `CCCCC(CC)COP(=O)([O-])OCC(CC)CCCC.CCCCC(CC)COP(=O)([O-])OCC(CC)CCCC.CCCCC(CC)COP(=O)([O-])OCC(CC)CCCC.[Gd+3]` (stereo unspecified) [gadolinium(III) bis(2-ethylhexyl) phosphate] + CCCCC(CC)COP(=O)(O)OCC(CC)CCCC, the mass density ([1]; x1 = 0.01568) is reported as 978.4 ± 2 kg/m3, the mass density ([1]; x1 = 0.0349) is reported as 987.4 ± 2 kg/m3 and the mass density ([1]; x1 = 0.04335) is reported as 991.2 ± 2 kg/m3. The mass density ([1]; x1 = 0.05925) was 997.8 ± 2 kg/m3.

`CCCCC(CC)COP(=O)(O)OCC(CC)CCCC` (stereo unspecified) [bis(2-ethylhexyl) hydrogen phosphate] + CCCCC(CC)COP(=O)([O-])OCC(CC)CCCC.CCCCC(CC)COP(=O)([O-])OCC(CC)CCCC.CCCCC(CC)COP(=O)([O-])OCC(CC)CCCC.[Eu+3] showed a mass density ([1]; x2 = 0) of 970.5 ± 2 kg/m3.

`CCCCC(CC)COP(=O)([O-])OCC(CC)CCCC.CCCCC(CC)COP(=O)([O-])OCC(CC)CCCC.CCCCC(CC)COP(=O)([O-])OCC(CC)CCCC.[Eu+3]` (stereo unspecified) [europium(III) bis(2-ethylhexyl) phosphate] + CCCCC(CC)COP(=O)(O)OCC(CC)CCCC showed a mass density ([1]; x1 = 0.01457) of 977.5 ± 2 kg/m3, a mass density ([1]; x1 = 0.03221) of 985.6 ± 2 kg/m3 and a mass density ([1]; x1 = 0.04158) of 989.9 ± 2 kg/m3. The mass density ([1]; x1 = 0.05518) was 995.6 ± 2 kg/m3 and the mass density ([1]; x1 = 0.07111) was 1001.7 ± 2 kg/m3.

Work on `CCCCC(CC)COP(=O)([O-])OCC(CC)CCCC.CCCCC(CC)COP(=O)([O-])OCC(CC)CCCC.CCCCC(CC)COP(=O)([O-])OCC(CC)CCCC.[Tb+3]` (stereo unspecified) [terbium(III) bis(2-ethylhexyl) phosphate] + CCCCC(CC)COP(=O)(O)OCC(CC)CCCC yielded a mass density ([1]; x1 = 0.00621) of 973.7 ± 2 kg/m3, a mass density ([1]; x1 = 0.0103) of 975.8 ± 2 kg/m3 and a mass density ([1]; x1 = 0.01167) of 976.6 ± 2 kg/m3. It also gave a mass density ([1]; x1 = 0.01875) of 980 ± 2 kg/m3, a mass density ([1]; x1 = 0.02771) of 984.4 ± 2 kg/m3 and a mass density ([1]; x1 = 0.04671) of 993.3 ± 2 kg/m3.

Work on `CCCCC(CC)COP(=O)([O-])OCC(CC)CCCC.CCCCC(CC)COP(=O)([O-])OCC(CC)CCCC.CCCCC(CC)COP(=O)([O-])OCC(CC)CCCC.[Nd+3]` (stereo unspecified) [neodymium(III) bis(2-ethylhexyl) phosphate] + CCCCC(CC)COP(=O)(O)OCC(CC)CCCC yielded a mass density ([1]; x1 = 0.01187) of 976.8 ± 2 kg/m3, a mass density ([1]; x1 = 0.01364) of 975.7 ± 2 kg/m3 and a mass density ([1]; x1 = 0.01427) of 977.3 ± 2.1 kg/m3. It also gave a mass density ([1]; x1 = 0.02626) of 981.7 ± 2.5 kg/m3, a mass density ([1]; x1 = 0.02653) of 983.6 ± 2.5 kg/m3 and a mass density ([1]; x1 = 0.02822) of 983.8 ± 2 kg/m3. The mass density ([1]; x1 = 0.03921) was 988.6 ± 2 kg/m3, the mass density ([1]; x1 = 0.0402) was 987.6 ± 2 kg/m3 and the mass density ([1]; x1 = 0.04214) was 990.4 ± 2 kg/m3. For the same molecule, the mass density ([1]; x1 = 0.04446) was 991 ± 2 kg/m3, the mass density ([1]; x1 = 0.04708) was 992.1 ± 2 kg/m3 and the mass density ([1]; x1 = 0.04955) was 991.6 ± 2 kg/m3. For the same molecule, the mass density ([1]; x1 = 0.05317) was 994.9 ± 2 kg/m3, the mass density ([1]; x1 = 0.0729) was 1002.3 ± 2 kg/m3 and the mass density ([1]; x1 = 0.07322) was 1002.5 ± 2 kg/m3. The mass density ([1]; x1 = 0.07707) was 1002.6 ± 2 kg/m3 and the mass density ([1]; x1 = 0.0837) was 1006.6 ± 2 kg/m3.

With `CCCCC(CC)COP(=O)(O)OCC(CC)CCCC` (stereo unspecified) [bis(2-ethylhexyl) hydrogen phosphate] + CCCCC(CC)COP(=O)([O-])OCC(CC)CCCC.CCCCC(CC)COP(=O)([O-])OCC(CC)CCCC.CCCCC(CC)COP(=O)([O-])OCC(CC)CCCC.[Nd+3] the mass density ([1]; x2 = 0) was 971 ± 2 kg/m3 and 969.1 ± 2 kg/m3 and 970.5 ± 2 kg/m3.

`CCCCC(CC)COP(=O)([O-])OCC(CC)CCCC.CCCCC(CC)COP(=O)([O-])OCC(CC)CCCC.CCCCC(CC)COP(=O)([O-])OCC(CC)CCCC.[Dy+3]` (stereo unspecified) [dysprosium(III) bis(2-ethylhexyl) phosphate] + CCCCC(CC)COP(=O)(O)OCC(CC)CCCC gave a mass density ([1]; x1 = 0.0039) of 973.1 ± 2 kg/m3, a mass density ([1]; x1 = 0.00883) of 975.7 ± 2 kg/m3 and a mass density ([1]; x1 = 0.02055) of 981.6 ± 2 kg/m3. The mass density ([1]; x1 = 0.03494) was 988.7 ± 2 kg/m3 and the mass density ([1]; x1 = 0.04879) was 995.1 ± 2 kg/m3.

For `CCCCC(CC)COP(=O)(O)OCC(CC)CCCC` (stereo unspecified) [bis(2-ethylhexyl) hydrogen phosphate] + CCCCC(CC)COP(=O)([O-])OCC(CC)CCCC.CCCCC(CC)COP(=O)([O-])OCC(CC)CCCC.CCCCC(CC)COP(=O)([O-])OCC(CC)CCCC.[Gd+3], the mass density ([1]; x2 = 0) was 970.5 ± 2 kg/m3.

Work on `CCCCC(CC)COP(=O)(O)OCC(CC)CCCC` (stereo unspecified) [bis(2-ethylhexyl) hydrogen phosphate] + CCCCC(CC)COP(=O)([O-])OCC(CC)CCCC.CCCCC(CC)COP(=O)([O-])OCC(CC)CCCC.CCCCC(CC)COP(=O)([O-])OCC(CC)CCCC.[Tb+3] yielded a mass density ([1]; x2 = 0) of 970.5 ± 2 kg/m3.

In the case of `CCCCC(CC)COP(=O)(O)OCC(CC)CCCC` (stereo unspecified) [bis(2-ethylhexyl) hydrogen phosphate] + Cc1ccccc1C, the mass density ([1]; x2 = 0.5002) is reported as 946.2 ± 4 kg/m3 and 946.1 ± 4 kg/m3, the mass density ([1]; x2 = 0.5198) is reported as 944.7 ± 4 kg/m3 and the mass density ([1]; x2 = 0.5201) is reported as 944.6 ± 4 kg/m3. For the same molecule, the mass density ([1]; x2 = 0.7313) was 924.4 ± 4 kg/m3, the mass density ([1]; x2 = 0.8195) was 912.6 ± 4 kg/m3 and 912.4 ± 4 kg/m3 and the mass density ([1]; x2 = 0.8197) was 912.5 ± 4 kg/m3. For the same molecule, the mass density ([1]; x2 = 0.8203) was 912.4 ± 4 kg/m3, the mass density ([1]; x2 = 0.8204) was 912.2 ± 4 kg/m3 and the mass density ([1]; x2 = 0.9275) was 893.2 ± 4 kg/m3 and 892.9 ± 4 kg/m3. The mass density ([1]; x2 = 0.9406) was 890.1 ± 4 kg/m3 and 890.3 ± 4 kg/m3 and 890 ± 4 kg/m3, the mass density ([1]; x2 = 0.9759) was 882 ± 4 kg/m3 and the mass density ([1]; x2 = 0.976) was 882 ± 4 kg/m3 and 881.9 ± 4 kg/m3 and 881.8 ± 4 kg/m3.

In the case of `CCCCC(CC)COP(=O)(O)OCC(CC)CCCC` (stereo unspecified) [bis(2-ethylhexyl) hydrogen phosphate] + CCCCC(CC)COP(=O)([O-])OCC(CC)CCCC.CCCCC(CC)COP(=O)([O-])OCC(CC)CCCC.CCCCC(CC)COP(=O)([O-])OCC(CC)CCCC.[Sm+3], the mass density ([1]; x2 = 0) is reported as 971 ± 2 kg/m3 and 970.5 ± 2 kg/m3.

With `CCCCC(CC)COP(=O)(O)OCC(CC)CCCC` (stereo unspecified) [bis(2-ethylhexyl) hydrogen phosphate] + CCCCC(CC)COP(=O)([O-])OCC(CC)CCCC.CCCCC(CC)COP(=O)([O-])OCC(CC)CCCC.CCCCC(CC)COP(=O)([O-])OCC(CC)CCCC.[Dy+3] the mass density ([1]; x2 = 0) was 971 ± 2 kg/m3.
